Reference: patent publication US20230141101A1, “PDE4 INHIBITOR COMPOUND AND MEDICAL USE THEREOF” (Suzhou Longbotai Pharmaceuticals Co., Ltd., priority 2020, published 2023)

Columns and labels:
Assay type in all cases: biochemical
Conditions in all cases: 20 nM
[1] = biological target: T1, PDE4B1 (Homo sapiens, UniProt Q07343); assay: PDE4 inhibitory activity assay (FAM-cAMP enzymatic reaction), PDE4B1
T1 construct: purchased BPS 60041
Description: (§1) The compounds of the present disclosure were tested for their inhibitory activity (IC50 value) against PDE4A1A, PDE4B1, and PDE4D2.
(§2) Positive compound: Trequinsin (Sigma, Cat No. T20S7).
(§3) Instrument: Wallac Victor Muti-lable counter (Pekin Elmer) Steps of assay:
(§4) PDE enzymatic reaction; • 1) PDE was dissolved in 1× reaction solution to prepare 2× enzyme solution; • 2) FAM-cAMP was dissolved in 1× reaction solution to prepare 2× substrate solution; • 3) Corresponding volume of the compound in DMSO was transferred to the reaction plate through Echo 550; • 4) 2× enzyme solution was added into the corresponding wells of the reaction plate and incubated with the compound solution for 15 minutes at room temperature; • 5) 2× substrate solution was added into the corresponding well of the reaction plate to initiate the reaction; • 6) After the reaction plate was incubated at room temperature for 30 min, the reaction was terminated by adding reaction stopping solution. The reaction plate was incubated at room temperature for another 60 minutes;
(§5) Inhibition rates were calculated with Excel; and IC50 for each compound was calculated with Graphpad prism.

[2] = biological target: PDE4D2 (Homo sapiens, UniProt Q08499); assay: PDE4 inhibitory activity assay (FAM-cAMP enzymatic reaction), PDE4D2
Chain of PDE4D2 (Q08499 303-809): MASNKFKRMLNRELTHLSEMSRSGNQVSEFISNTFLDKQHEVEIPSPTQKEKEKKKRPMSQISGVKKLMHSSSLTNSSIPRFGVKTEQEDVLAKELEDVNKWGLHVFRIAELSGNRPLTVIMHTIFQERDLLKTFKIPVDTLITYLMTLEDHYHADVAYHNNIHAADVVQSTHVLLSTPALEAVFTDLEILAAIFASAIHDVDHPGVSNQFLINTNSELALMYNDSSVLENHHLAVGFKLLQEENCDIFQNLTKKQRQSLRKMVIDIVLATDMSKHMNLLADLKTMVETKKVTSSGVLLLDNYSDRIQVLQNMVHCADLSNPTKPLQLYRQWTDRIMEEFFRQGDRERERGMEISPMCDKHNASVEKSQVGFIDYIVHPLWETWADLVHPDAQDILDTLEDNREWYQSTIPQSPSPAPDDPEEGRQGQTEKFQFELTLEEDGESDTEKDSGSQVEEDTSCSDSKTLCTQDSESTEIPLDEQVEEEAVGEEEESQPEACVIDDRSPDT
Description: as §1, §2, §3, §4, §5

[3] = biological target: T2, PDE4A1A (Homo sapiens, UniProt P27815); assay: PDE4 inhibitory activity assay (FAM-cAMP enzymatic reaction), PDE4A1A
T2 construct: purchased BPS 60040
T2 sequence (P27815 1-647 isoform P27815-4): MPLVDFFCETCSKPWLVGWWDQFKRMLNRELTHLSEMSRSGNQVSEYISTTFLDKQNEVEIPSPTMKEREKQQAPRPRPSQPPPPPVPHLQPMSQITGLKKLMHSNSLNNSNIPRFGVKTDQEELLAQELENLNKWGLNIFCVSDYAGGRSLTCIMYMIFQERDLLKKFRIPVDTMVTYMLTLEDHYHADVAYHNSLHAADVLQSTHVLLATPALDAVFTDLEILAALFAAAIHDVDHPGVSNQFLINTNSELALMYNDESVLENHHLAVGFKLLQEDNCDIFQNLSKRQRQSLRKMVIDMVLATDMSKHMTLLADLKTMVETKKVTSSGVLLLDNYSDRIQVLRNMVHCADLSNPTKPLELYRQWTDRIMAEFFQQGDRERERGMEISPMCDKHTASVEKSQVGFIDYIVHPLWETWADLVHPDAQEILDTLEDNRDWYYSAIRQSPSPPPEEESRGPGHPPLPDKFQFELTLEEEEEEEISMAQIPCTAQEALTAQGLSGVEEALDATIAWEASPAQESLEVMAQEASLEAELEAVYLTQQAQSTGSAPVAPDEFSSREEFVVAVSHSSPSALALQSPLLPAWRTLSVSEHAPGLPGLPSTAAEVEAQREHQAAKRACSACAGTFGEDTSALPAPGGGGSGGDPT
Description: as §1, §2, §3, §4, §5

T1 sequence (Q07343 whole entry): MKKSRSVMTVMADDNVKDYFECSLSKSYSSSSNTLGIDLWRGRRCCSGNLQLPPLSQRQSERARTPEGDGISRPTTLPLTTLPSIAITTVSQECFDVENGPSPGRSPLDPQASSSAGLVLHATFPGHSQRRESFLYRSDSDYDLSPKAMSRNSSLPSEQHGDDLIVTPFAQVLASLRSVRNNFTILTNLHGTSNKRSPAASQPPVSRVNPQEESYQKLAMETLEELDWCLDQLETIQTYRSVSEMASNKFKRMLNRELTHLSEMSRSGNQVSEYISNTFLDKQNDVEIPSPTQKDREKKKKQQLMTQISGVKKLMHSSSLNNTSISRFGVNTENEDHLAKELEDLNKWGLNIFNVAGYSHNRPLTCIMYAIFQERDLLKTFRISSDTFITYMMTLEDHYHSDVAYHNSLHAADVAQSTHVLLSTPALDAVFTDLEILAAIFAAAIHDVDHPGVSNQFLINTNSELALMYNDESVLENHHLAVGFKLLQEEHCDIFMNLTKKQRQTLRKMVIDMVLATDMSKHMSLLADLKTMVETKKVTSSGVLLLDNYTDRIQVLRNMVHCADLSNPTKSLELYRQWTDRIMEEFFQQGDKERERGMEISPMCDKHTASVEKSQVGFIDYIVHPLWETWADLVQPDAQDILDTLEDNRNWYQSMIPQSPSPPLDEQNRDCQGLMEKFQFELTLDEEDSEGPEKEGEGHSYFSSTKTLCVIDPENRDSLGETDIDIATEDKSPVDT

CCOc1nc([C@@H](CS(C)(=O)=O)n2c(=O)n(C)c3cc(-c4cccc(F)c4F)cnc32)ccc1OC [Ex. 91, (S)-6-(2,3-difluorophenyl)-3-(1-(6-ethoxy-5-methoxypyridin-2-yl)-2-(methylsulfonyl)ethyl)-1-methyl-1H-imidazo[45-b]pyridin-2(3H)-one]
+: PDE4 B1 inhibitory effect at 20 nM [1] | PDE4 D2 inhibitory effect at 20 nM [2] | PDE4 A1 inhibitory effect at 20 nM [3]

CCOc1nc([C@@H](CS(C)(=O)=O)n2c(=O)n(C)c3cc(-c4ccc(F)cc4OC)ccc32)ccc1OC [Ex. 189, (S)-5-(4-fluoro-2-methoxyphenyl)-1-(1-(6-ethoxy-5-methoxypyridin-2-yl)-2-(methylsulfonyl)ethyl)-3-methyl-1H-benzo[d]imidazol-2(3H)-one]
+: PDE4 B1 inhibitory effect at 20 nM [1] | PDE4 D2 inhibitory effect at 20 nM [2] | PDE4 A1 inhibitory effect at 20 nM [3]

CCOc1nc([C@@H](CS(C)(=O)=O)n2c(=O)n(C)c3cc(-c4ccc(F)cc4OC)cnc32)ccc1OC [Ex. 120, (S)-6-(4-fluoro-2-methoxyphenyl)-3-(1-(6-ethoxy-5-methoxypyridin-2-yl)-2-(methylsulfonyl)ethyl)-1-methyl-1H-imidazo[4,5-b]pyridin-2(3H)-one]
+: PDE4 B1 inhibitory effect at 20 nM [1] | PDE4 D2 inhibitory effect at 20 nM [2] | PDE4 A1 inhibitory effect at 20 nM [3]

CCOc1nc([C@@H](CS(C)(=O)=O)N2C(=O)c3csc(NC(=O)CN4CCCC4)c3C2=O)ccc1OC [Ex. 231, (S)—N-(5-(1-(6-ethoxy-5-methoxypyridin-2-yl)-2-(methylsulfonyl)ethyl)-4,6-dioxo-5,6-dihydro-4H-thieno[3,4-c]pyrrol-1-yl)-2-(pyrrolidin-1-yl)acetamide]
+: PDE4 B1 inhibitory effect at 20 nM [1] | PDE4 D2 inhibitory effect at 20 nM [2] | PDE4 A1 inhibitory effect at 20 nM [3]

CCOc1nc([C@@H](CS(C)(=O)=O)N2C(=O)c3csc(NC(=O)CN4CCCCC4)c3C2=O)ccc1OC [Ex. 230, (S)—N-(5-(1-(6-ethoxy-5-methoxypyridin-2-yl)-2-(methylsulfonyl)ethyl)-4,6-dioxo-5,6-dihydro-4H-thieno[3,4-c]pyrrol-1-yl)-2-(piperidin-1-yl)acetamide]
+: PDE4 B1 inhibitory effect at 20 nM [1] | PDE4 D2 inhibitory effect at 20 nM [2] | PDE4 A1 inhibitory effect at 20 nM [3]

CCOc1nc([C@@H](CS(C)(=O)=O)n2c(=O)[nH]c3cc(-c4cccc(C)c4C)cnc32)ccc1OC [Ex. 103, (S)-6-(2,3-dimethylphenyl)-3-(1-(6-ethoxy-5-methoxypyridin-2-yl)-2-(methylsulfonyl)ethyl)-1H-imidazo[4,5-b]pyridin-2(3H)-one]
+: PDE4 B1 inhibitory effect at 20 nM [1] | PDE4 D2 inhibitory effect at 20 nM [2] | PDE4 A1 inhibitory effect at 20 nM [3]

CCOc1nc([C@@H](CS(C)(=O)=O)n2c(=O)[nH]c3c(C)c(-c4cccc(C)c4F)cnc32)ccc1OC [Ex. 39, (S)-6-(2-fluoro-3-methylphenyl)-3-(1-(6-ethoxy-5-methoxypyridin-2-yl)-2-(methylsulfonyl)ethyl)-7-methyl-1H-imidazo[4,5-b]pyridin-2(3H)-one]
+: PDE4 B1 inhibitory effect at 20 nM [1] | PDE4 D2 inhibitory effect at 20 nM [2] | PDE4 A1 inhibitory effect at 20 nM [3]

CCOc1nc([C@@H](CS(C)(=O)=O)N2Cc3cccc(NC(=O)CC)c3C2=O)ccc1OC [Ex. 219, (S)—N-(2-(1-(6-ethoxy-5-methoxypyridin-2-yl)-2-(methylsulfonyl)ethyl)-3-oxoisoindolin-4-yl)propionamide]
+: PDE4 B1 inhibitory effect at 20 nM [1] | PDE4 D2 inhibitory effect at 20 nM [2] | PDE4 A1 inhibitory effect at 20 nM [3]

CCOc1nc([C@@H](CS(C)(=O)=O)n2c(=O)[nH]c3cc(-c4c(F)cccc4OC)cnc32)ccc1OC [Ex. 121, (S)-6-(6-fluoro-2-methoxyphenyl)-3-(1-(6-ethoxy-5-methoxypyridin-2-yl)-2-(methylsulfonyl)ethyl)-1H-imidazo[4,5-b]pyridin-2(3H)-one]
+: PDE4 B1 inhibitory effect at 20 nM [1] | PDE4 D2 inhibitory effect at 20 nM [2] | PDE4 A1 inhibitory effect at 20 nM [3]
